Reference: the NIST ThermoML archive (doi:10.1021/je4009238)

Columns and labels:
[1] = 101 kPa, Liquid
[2] = refractive index (Na D-line) (dimensionless); settings: 101.33 kPa, Liquid
[3] = xn = mol fraction of the nth substance listed; settings: 101 kPa, Liquid
[4] = refractive index (Na D-line) (dimensionless); xn = mol fraction of the nth substance listed; settings: 101 kPa, Liquid

CCCCCCn1cc[n+](C)c1.[Cl-] [1-hexyl-3-methylimidazolium chloride]
Settings	mass density, 288.15 K [kg/m3]	mass density, 298.15 K [kg/m3]	mass density, 308.15 K [kg/m3]	mass density, 318.15 K [kg/m3]	refractive index, 288.15 K	refractive index, 298.15 K	refractive index, 308.15 K	refractive index, 318.15 K	viscosity, 308.15 K [mPa·s]	viscosity, 318.15 K [mPa·s]
[1]	1047.99	1042.2	1036.43	1030.62	–	–	–	–	2044.2	884.2
[2]	–	–	–	–	1.5125	1.50953	1.50667	1.5039	–	–

CCCCCCn1cc[n+](C)c1.[Cl-] [1-hexyl-3-methylimidazolium chloride] + CN(C)C=O
Settings	mass density, [3] [kg/m3]	refractive index, [4]	viscosity, [3] [mPa·s]
288.15 K, x1 = 0.0312	964.44	1.44088	1.271
288.15 K, x1 = 0.0646	973.48	1.44818	1.715
288.15 K, x1 = 0.102	982	1.45488	2.392
288.15 K, x1 = 0.1456	990.33	1.46175	4.166
288.15 K, x1 = 0.196	998.49	1.46836	6.28
288.15 K, x1 = 0.2502	1005.77	1.47473	10.77
288.15 K, x1 = 0.3144	1013.08	1.4808	17.98
288.15 K, x1 = 0.3893	1020.04	1.48693	32.59
288.15 K, x1 = 0.4796	1026.84	1.49278	65.31
288.15 K, x1 = 0.591	1033.55	1.49886	134.94
288.15 K, x1 = 0.7249	1039.53	1.50429	232.47
288.15 K, x1 = 1	1047.99	1.5125	–
298.15 K, x1 = 0.0312	955.32	1.43634	1.097
298.15 K, x1 = 0.0646	964.62	1.44359	1.451
298.15 K, x1 = 0.102	973.43	1.45059	2.064
298.15 K, x1 = 0.1456	982.06	1.45751	2.874
298.15 K, x1 = 0.196	990.57	1.46433	4.815
298.15 K, x1 = 0.2502	998.08	1.47086	7.927
298.15 K, x1 = 0.3144	1005.74	1.47702	12.52
298.15 K, x1 = 0.3893	1012.97	1.48213	21.49
298.15 K, x1 = 0.4796	1019.96	1.48933	40.25
298.15 K, x1 = 0.591	1026.93	1.49567	76.98
298.15 K, x1 = 0.7249	1033.24	1.50108	178.3
298.15 K, x1 = 1	1042.2	1.50953	–
308.15 K, x1 = 0.0312	946.13	1.43187	0.961
308.15 K, x1 = 0.0646	955.75	1.43909	1.249
308.15 K, x1 = 0.102	964.86	1.44632	1.733
308.15 K, x1 = 0.1456	973.81	1.4533	2.348
308.15 K, x1 = 0.196	982.59	1.46038	3.817
308.15 K, x1 = 0.2502	990.42	1.46695	6.056
308.15 K, x1 = 0.3144	998.35	1.47335	9.115
308.15 K, x1 = 0.3893	1005.87	1.47856	15.08
308.15 K, x1 = 0.4796	1013.14	1.48595	26.46
308.15 K, x1 = 0.591	1020.36	1.49237	47.62
308.15 K, x1 = 0.7249	1026.94	1.49797	75.17
308.15 K, x1 = 1	1036.43	1.50667	2044.2
318.15 K, x1 = 0.0312	936.91	1.42765	0.852
318.15 K, x1 = 0.0646	946.92	1.43468	1.091
318.15 K, x1 = 0.102	956.28	1.44219	1.489
318.15 K, x1 = 0.1456	965.63	1.44909	1.957
318.15 K, x1 = 0.196	974.62	1.45652	3.113
318.15 K, x1 = 0.2502	982.82	1.46293	4.77
318.15 K, x1 = 0.3144	990.96	1.46974	6.88
318.15 K, x1 = 0.3893	998.8	1.47497	10.95
318.15 K, x1 = 0.4796	1006.38	1.48264	18.37
318.15 K, x1 = 0.591	1013.87	1.48916	31.33
318.15 K, x1 = 0.7249	1020.7	1.49498	47.69
318.15 K, x1 = 1	1030.62	1.5039	884.2

CCCCCCCC[n+]1ccn(C)c1.[Cl-] [1-methyl-3-octylimidazolium chloride]
Settings	mass density, 288.15 K [kg/m3]	mass density, 298.15 K [kg/m3]	mass density, 308.15 K [kg/m3]	mass density, 318.15 K [kg/m3]	refractive index, 288.15 K	refractive index, 298.15 K	refractive index, 308.15 K	refractive index, 318.15 K	viscosity, 308.15 K [mPa·s]	viscosity, 318.15 K [mPa·s]
[1]	1022.06	1015.97	1009.8	1003.62	–	–	–	–	155.03	65.95
[2]	–	–	–	–	1.49008	1.48709	1.48413	1.48122	–	–

CCCCCCCC[n+]1ccn(C)c1.[Cl-] [1-methyl-3-octylimidazolium chloride] + CN(C)C=O
Settings	mass density, [3] [kg/m3]	refractive index, [4]	viscosity, [3] [mPa·s]
288.15 K, x1 = 0.0306	962.61	1.4392	1.617
288.15 K, x1 = 0.0647	970.04	1.44535	2.007
288.15 K, x1 = 0.1021	976.96	1.4504	2.763
288.15 K, x1 = 0.1457	983.52	1.45598	4.132
288.15 K, x1 = 0.1939	989.54	1.46074	5.958
288.15 K, x1 = 0.2496	995.13	1.46531	8.425
288.15 K, x1 = 0.3143	1000.4	1.46967	13.28
288.15 K, x1 = 0.39	1005.26	1.47407	20.46
288.15 K, x1 = 0.4809	1009.79	1.47791	34.23
288.15 K, x1 = 0.5908	1013.76	1.48169	60.63
288.15 K, x1 = 0.7259	1017.15	1.48534	122.33
288.15 K, x1 = 1	1022.06	1.49008	–
298.15 K, x1 = 0.0306	953.41	1.43459	1.348
298.15 K, x1 = 0.0647	961.21	1.44113	1.629
298.15 K, x1 = 0.1021	968.34	1.44613	2.262
298.15 K, x1 = 0.1457	975.24	1.45203	3.234
298.15 K, x1 = 0.1939	981.46	1.45641	4.582
298.15 K, x1 = 0.2496	987.32	1.46173	6.215
298.15 K, x1 = 0.3143	992.89	1.46588	9.498
298.15 K, x1 = 0.39	997.98	1.47066	14.03
298.15 K, x1 = 0.4809	1002.82	1.47429	22.18
298.15 K, x1 = 0.5908	1006.97	1.47835	37.33
298.15 K, x1 = 0.7259	1010.6	1.48212	69.31
298.15 K, x1 = 1	1015.97	1.48709	–
308.15 K, x1 = 0.0306	944.19	1.43007	1.172
308.15 K, x1 = 0.0647	952.27	1.4361	1.448
308.15 K, x1 = 0.1021	959.68	1.44189	1.909
308.15 K, x1 = 0.1457	966.87	1.44766	2.615
308.15 K, x1 = 0.1939	973.37	1.45241	3.636
308.15 K, x1 = 0.2496	979.5	1.45731	4.753
308.15 K, x1 = 0.3143	985.36	1.46212	7.07
308.15 K, x1 = 0.39	990.69	1.46672	10.12
308.15 K, x1 = 0.4809	995.8	1.47089	15.15
308.15 K, x1 = 0.5908	1000.19	1.47504	24.36
308.15 K, x1 = 0.7259	1004.44	1.47897	43.04
308.15 K, x1 = 1	1009.8	1.48413	155.03
318.15 K, x1 = 0.0306	934.98	1.42562	1.013
318.15 K, x1 = 0.0647	943.27	1.43143	1.289
318.15 K, x1 = 0.1021	951.06	1.438	1.661
318.15 K, x1 = 0.1457	958.48	1.44342	2.182
318.15 K, x1 = 0.1939	965.3	1.44849	2.97
318.15 K, x1 = 0.2496	971.71	1.45347	3.753
318.15 K, x1 = 0.3143	977.79	1.4586	5.427
318.15 K, x1 = 0.39	983.45	1.46306	7.536
318.15 K, x1 = 0.4809	988.76	1.46765	10.77
318.15 K, x1 = 0.5908	993.39	1.47179	16.68
318.15 K, x1 = 0.7259	997.95	1.47589	28.25
318.15 K, x1 = 1	1003.62	1.48122	65.95

CN(C)C=O [dimethylformamide]
Settings	mass density, [1] [kg/m3]	refractive index, [2]	viscosity, [1] [mPa·s]
288.15 K	953.79	1.43304	0.936
298.15 K	944.26	1.42858	0.825
308.15 K	934.69	1.42381	0.736
318.15 K	925.16	1.41909	0.665

CN(C)C=O [dimethylformamide] + CCCCCCCC[n+]1ccn(C)c1.[Cl-]
x2 = 0
Settings	mass density, [3] [kg/m3]	refractive index, [4]	viscosity, [3] [mPa·s]
288.15 K	953.79	1.43304	0.936
298.15 K	944.26	1.42858	0.825
308.15 K	934.69	1.42381	0.736
318.15 K	925.16	1.41909	0.665

CN(C)C=O [dimethylformamide] + CCCCCCn1cc[n+](C)c1.[Cl-]
x2 = 0
Settings	mass density, [3] [kg/m3]	refractive index, [4]	viscosity, [3] [mPa·s]
288.15 K	953.79	1.43304	0.936
298.15 K	944.26	1.42858	0.825
308.15 K	934.69	1.42381	0.736
318.15 K	925.16	1.41909	0.665

CN(C)C=O [dimethylformamide] + CCCCn1cc[n+](C)c1.[Cl-]
x2 = 0
Settings	mass density, [3] [kg/m3]	refractive index, [4]	viscosity, [3] [mPa·s]
288.15 K	953.79	1.43304	0.936
298.15 K	944.26	1.42858	0.825
308.15 K	934.69	1.42381	0.736
318.15 K	925.16	1.41909	0.665

CN(C)C=O [dimethylformamide] + CCn1cc[n+](C)c1.[Cl-]
x2 = 0
Settings	mass density, [3] [kg/m3]	refractive index, [4]	viscosity, [3] [mPa·s]
288.15 K	953.79	1.43304	0.936
298.15 K	944.26	1.42858	0.825
308.15 K	934.69	1.42381	0.736
318.15 K	925.16	1.41909	0.665
